What was measured:
macrophages [1] = test: Toxicity of drugamers to macrophages (Examples 5 and 6); type: cell-based; details: 50 or 500 ng/mL drugamer; data not shown
Procedure: Methods: CD14+ monocytes were isolated from PBMCs and differentiated to macrophages in RPMI/10% FBS with 10 ng/mL GM-CSF. After 6 days in culture, cells were replated into a 12 well dish, with 250K cells/well. The following day, they were mock transduced or transduced with vector control (EGFRt) or membrane-bound anti-FITC:EGFRt. Media was changed every 3 days. Seven days after transduction, all cells were washed twice with PBS and treated with either 50 or 500 ng/mL drugamer, which contained FITC and CMP8, in PBS. After a 15 min incubation at 37° C., cells were washed twice with PBS and one group of cells (“15 min”) was non-enzymatically detached with VERSENE™ and immediately fixed for flow with 2% paraformaldehyde. After the PBS wash, the other group of cells was allowed to recover in RP10 for 72 hours before detaching/fixing
Methods: CD14+ monocytes were isolated from PBMCs and differentiated to macrophages in RPMI/10% FBS with 10 ng/mL GM-CSF. After 6 days in culture, cells were replated into a 12 well dish, with 250K cells/well. The following day, they were mock transduced or transduced with vector control (EGFRt) or membrane-bound anti-FITC:EGFRt. Media was changed every 3 days. […] Rhodamine fluorescence was measured, indicating the presence of drugamer following 10 days in culture (data not shown).

macrophages [2] = test: Free resiquimod and galunisertib testing, cytokines and phenotype (Example 9); type: cell-based, human; details: Galunisertib 56 nM for 1 hour, on its own
Procedure: (§1) Methods: CD14+ monocytes were isolated from PBMCs and differentiated to macrophages in RPMI/10% FBS with 10 ng/mL GM-CSF or 25 ng/ml M-CSF for 6 days. Macrophages were incubated with Resiquimod (1 ug/ml) and/or Galunisertib (56 nM) for 1 hour, then stimulated with 1 ug LPS/100U/ml IFNg to determine impact on viability using flow cytometry of cells and pro-inflammatory responsiveness using a 30plex for human cytokines on cell supernatant 24 hours after stimulation. Expression of bFGF, IL-1B, GCSF, IL10, 1L^13, IL6, IL12, Rantes, MIP1a, GMCSF, MIP1B, MCP1, IL15, EGF, IL5, HGF, VEGF, IFNg, IFNa, IL1RA, TNFa, IL7, IP10, IL2R, MIG, and IL8 was measured in the following treatment groups: M1 control, M1 resiquimod, M1 galunisertib, M1 resiquimod+galunisertib, M1 LPS/IFNg+resiquimod, M1 LPS/IFNg+galunisertib, M1 LPS/IFNg+resiquimod, +galunisertib, M2 control, M2 resiquimod, M2 galunisertib, M2 resiquimod+galunisertib, M2 LPS/IFNg+resiquimod, M2 LPS/IFNg+galunisertib, and M LPS/IFNg+resiquimod, +galunisertib (data not shown). […]

primary macrophages = test: Free resiquimod and galunisertib testing, toxicity (Example 9); type: cell-based, human; details: Resiquimod 1 ug/ml and/or Galunisertib 56 nM, alone or in combination
Procedure: as §1

M1 polarized macrophages = test: Free PI103 testing, 30plex cytokines, M1 macrophages (Example 8); type: cell-based, human; details: 500 nM PI103 for 1 hour, then LPS/IFNg, 24 hours
Procedure: (§2) Methods: CD14+ monocytes were isolated from PBMCs and differentiated to macrophages in RPMI/10% FBS with 10 ng/mL GM-CSF or 25 ng/ml M-CSF for 6 days. Macrophages were incubated with 500 nM PI103 for 1 hour, then stimulated with 1 ug LPS/100U/ml IFNg to determine impact on viability using flow cytometry of cells and pro-inflammatory responsiveness using a 30plex for human cytokines on cell supernatant 24 hours after stimulation. The expression of MIP1B, MCP1, IL15, EGF, HGF, VEGF, IFNg, IFNa, IL1RA, TNFa, IL7, IP10, IL2R, MIG, IL4, and IL8 was determined for each of the following groups: M1 control, M1 PI103, M1 LPS/IFNg, M1 PI103 LPS/IFNg, M2 control, M2 PI103, M2 LPS/IFNg, and M2 PI103 LPS/IFNg (data not shown). A summary of the significant data when using t-test to compare between treatment groups with and without Pi103 is shown for M1 macrophages in FIG. 22A and M2 macrophages in FIG. 22B.

M2 polarized macrophages = test: Free PI103 testing, 30plex cytokines, M2 macrophages (Example 8); type: cell-based, human; details: 500 nM PI103 for 1 hour, then LPS/IFNg, 24 hours
Procedure: as §2

[3] = test system: MCSF polarized M2 macrophages; test: Free PI103 testing, flow cytometry of surface markers (Example 8); type: cell-based, human; details: 500 nM PI103
Procedure: as §2, with “22B. Flow cytometry staining included Live/Dead, HLA-DR, CD11b and CD14 to confirm expression of macrophage surface markers and viability (data not shown), as well as CD206 (anti-inflammatory macrophage marker; data not shown), CD163 (anti-inflammatory macrophage marker; data not shown), CD80 and CD86 (costimulatory molecules; data not shown).” for “22B.”

[4] = test system: CCR expressing CAR T cells; test: Exhaustion marker expression on CAR T cells cultured with macrophage derived IL-7 (Example 10); type: cell-based; details: in contrast to culture with recombinant IL-7, FIG. 23C
Procedure: Methods: CD14+ monocytes were isolated from PBMCs and differentiated to macrophages in RPMI/10% FBS with 10 ng/mL GM-CSF. After 6 days in culture, cells were replated into a 12 well dish, with 250K cells/well. The following day, they were mock transduced or transduced with vector control (EGFRt) or a vector encoding constitutive IL-7 under the control of the EF1a promoter. Autologous T cells were transduced with a chimeric cytokine receptor shown on FIG. 23A, and an anti-EGFRvIII specific CAR. T cells were magnetically separated based on CD4 and CD8 expression and expanded in vitro using Miltenyi CD3/CD28 beads and frozen. CFSE Cell Trace labeled CD4 or CD8 T cells were used in proliferation assays in response to IL-7 transduced macrophages.

Molecule: O=C1CCC2(Cc3ccc(Cl)cc3)Cc3cc(O)ccc3C2=C1c1ccc(OCCN2CCCCC2)cc1 (stereo not shown) [CMP8, 9a-(4-Chlorobenzyl)-7-hydroxy-4-[4-(2-piperidin-1-ylethoxy)phenyl]-1,2,9,9a-tetrahydro-3H-fluoren-3-one]
- toxicity to macrophages (macrophages [1]): toxicity is linked to CMP8

Molecule: Cc1cccc(-c2nn3c(c2-c2ccnc4ccc(C(N)=O)cc24)CCC3)n1 [Galunisertib]
- phenotypic or functional response to stimulation (macrophages [2]): little impact on phenotypic or functional response to stimulation
- toxicity to primary macrophages (primary macrophages): neither molecule alone or in combination is toxic to primary macrophages

Molecule: Oc1cccc(-c2nc(N3CCOCC3)c3oc4ncccc4c3n2)c1 [PI103]
- pro-inflammatory cytokine production (M1 polarized macrophages): decrease
- pro-inflammatory TNFalpha production (M2 polarized macrophages): increase
- antigen presentation surface proteins CD80 and CD86 [3]: increase
- surface markers consistent with an anti-inflammatory phenotype [3]: decrease

Molecule: CCOCc1nc2c(N)nc3ccccc3c2n1CC(C)(C)O [resiquimod]
- toxicity to primary macrophages (primary macrophages): neither molecule alone or in combination is toxic to primary macrophages

B1: macrophage derived IL-7: IL-7 produced by macrophages transduced with a vector encoding constitutive IL-7 (protein, UniProt P13232 26-177, looked up)
Interleukin-7: DCDIEGKDGKQYESVLMVSIDQLLDSMKEIGSNCLNNEFNFFKRHICDANKEGMFLFRAARKLRQFLKMNSTGDFDLHLLKVSEGTTILLNCTGQVKGRKPAALGEAQPTKSLEENKSLKEQKKLNDLCFLKRLLQEIKTCWNKILMGTKEH
- expression of exhaustion markers TIM3, PD-1, and CD95 [4]: reduced
- expression of exhaustion markers TIM3, PD-1, and CD95 ([4]; listed as GEM derived IL-7): reduces exhaustion marker expression

Source: patent US20200405881A1, “CELL BASED METHODS AND COMPOSITIONS FOR THERAPEUTIC AGENT DELIVERY AND TREATMENTS USING SAME” (UNIVERSITY OF WASHINGTON, priority 2017, published 2020)
